Columns and labels:
5'-nucleotidase [1] = molecular target: T1, 5'-nucleotidase (Homo sapiens, UniProt P21589); test: Inhibition of human CD73 expressed in CHO cells using AMP as substrate preincubated for 60 mins followed by substrate addition and measured after 60 mins by PiColorLock gold reagent based colorimetric assay; assay type: cell-based
[2] = Clearance in Sprague-Dawley rat at 0.5 mg/kg, iv; assay type: ADME, organism-based; conditions: in vivo
5'-nucleotidase [3] = molecular target: T1, 5'-nucleotidase; test: Inhibition of human CD73 using AMP as substrate by Malachite green phosphate reagent-based assay

T1 sequence (P21589 whole entry): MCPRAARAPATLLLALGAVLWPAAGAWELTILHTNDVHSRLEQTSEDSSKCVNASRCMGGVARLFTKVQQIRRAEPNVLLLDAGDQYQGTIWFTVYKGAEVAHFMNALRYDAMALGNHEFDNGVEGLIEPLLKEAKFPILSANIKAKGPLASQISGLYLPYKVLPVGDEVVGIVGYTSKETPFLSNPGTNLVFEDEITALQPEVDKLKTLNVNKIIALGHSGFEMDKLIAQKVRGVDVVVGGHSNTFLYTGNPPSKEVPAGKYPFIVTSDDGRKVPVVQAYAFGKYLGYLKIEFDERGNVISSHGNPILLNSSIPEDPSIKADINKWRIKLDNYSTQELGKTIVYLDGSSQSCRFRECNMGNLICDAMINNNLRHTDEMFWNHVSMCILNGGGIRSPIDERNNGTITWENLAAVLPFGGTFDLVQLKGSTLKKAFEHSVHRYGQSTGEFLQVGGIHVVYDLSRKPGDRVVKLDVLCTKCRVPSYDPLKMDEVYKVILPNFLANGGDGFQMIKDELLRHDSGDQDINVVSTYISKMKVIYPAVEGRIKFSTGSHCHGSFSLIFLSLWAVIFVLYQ

Work on O=P(O)(O)CP(=O)(O)OC[C@H]1O[C@@H](n2cnc3c(NCc4ccccc4)nc(Cl)nc32)[C@@H](F)[C@@H]1O yielded an IC50 (5'-nucleotidase [1]) of 0.7 nM and a clearance [2] of 1 mL/min/kg.
Compound C[C@H](Nc1nc(Cl)nc2c1cnn2[C@@H]1O[C@H](COP(=O)(O)CP(=O)(O)O)[C@@H](O)[C@H]1O)c1cccc(F)c1 has an IC50 (5'-nucleotidase [1]) of 0.031 nM and a clearance [2] of 0.833 mL/min/kg.
Compound C[C@@H](Nc1nc(Cl)nc2c1cnn2[C@@H]1O[C@H](COP(=O)(O)CP(=O)(O)O)[C@@H](O)[C@H]1O)c1ccccc1 has an IC50 (5'-nucleotidase [1]) of 0.058 nM and a clearance [2] of 2.83 mL/min/kg.
CNc1nc(NCc2ccccc2)c2ncn([C@@H]3O[C@H](COP(=O)(O)CP(=O)(O)O)[C@@H](O)[C@H]3O)c2n1 showed an IC50 (5'-nucleotidase [1]) of 5 nM.
CNc1nc(Cl)nc2c1ncn2[C@@H]1O[C@H](COP(=O)(O)CP(=O)(O)O)[C@@H](O)[C@@H]1F showed an IC50 (5'-nucleotidase [1]) of 12 nM.
With Cc1nc(NCc2ccccc2)c2ncn([C@@H]3O[C@H](COP(=O)(O)CP(=O)(O)O)[C@@H](O)[C@@H]3F)c2n1 the IC50 (5'-nucleotidase [1]) was 4 nM.
Work on C[C@H](Nc1nc(Cl)nc2c1ccn2[C@@H]1O[C@H](COP(=O)(O)CP(=O)(O)O)[C@@H](O)[C@H]1O)c1cccc(F)c1 yielded an IC50 (5'-nucleotidase [1]) of 0.032 nM and a clearance [2] of 0.667 mL/min/kg.
C[C@@H](Nc1nc(Cl)nc2c1cnn2[C@@H]1O[C@H](COP(=O)(O)CP(=O)(O)O)[C@@H](O)[C@@H]1F)c1ccccc1 showed an IC50 (5'-nucleotidase [1]) of 2.1 nM and a clearance [2] of 9.33 mL/min/kg.
Work on C[C@H](Nc1nc(Cl)nc2c1cnn2[C@@H]1O[C@H](COP(=O)(O)CP(=O)(O)O)[C@@H](O)[C@H]1O)c1ccc(F)cc1 yielded an IC50 (5'-nucleotidase [1]) of 0.095 nM.
O=P(O)(O)CP(=O)(O)OC[C@H]1O[C@@H](n2cnc3c(NCc4ccccc4)nc(N4CCCC4)nc32)[C@H](O)[C@@H]1O showed an IC50 (5'-nucleotidase [1]) of 48 nM.
In the case of CCNc1nc(Cl)nc2c1ncn2[C@@H]1O[C@H](COP(=O)(O)CP(=O)(O)O)[C@@H](O)[C@@H]1F, the IC50 (5'-nucleotidase [1]) is reported as 5 nM.
Compound Cc1nc(NCc2ccccc2)c2ncn([C@@H]3O[C@H](COP(=O)(O)CP(=O)(O)O)[C@@H](O)[C@H]3O)c2n1 has an IC50 (5'-nucleotidase [1]) of 1.3 nM.
O=P(O)(O)CP(=O)(O)OC[C@H]1O[C@@H](n2cnc3c(NCc4ccncc4)nc(Cl)nc32)[C@@H](F)[C@@H]1O gave an IC50 (5'-nucleotidase [1]) of 3.6 nM.
O=P(O)(O)CP(=O)(O)OC[C@H]1O[C@@H](n2cnc3c(NC4CCCC4)nc(Cl)nc32)[C@@H](F)[C@@H]1O gave an IC50 (5'-nucleotidase [1]) of 0.4 nM and a clearance [2] of 2.5 mL/min/kg.
For O=P(O)(O)CP(=O)(O)OC[C@H]1O[C@@H](n2cnc3c(N4Cc5ccccc5C4)nc(Cl)nc32)[C@@H](F)[C@@H]1O, the IC50 (5'-nucleotidase [1]) was 1.1 nM.
Work on CC(C)Nc1nc(Cl)nc2c1ncn2[C@@H]1O[C@H](COP(=O)(O)CP(=O)(O)O)[C@@H](O)[C@@H]1F yielded an IC50 (5'-nucleotidase [1]) of 3.6 nM.
Compound O=P(O)(O)CP(=O)(O)OC[C@H]1O[C@@H](n2cnc3c(NCc4ccc(Cl)cc4)nc(Cl)nc32)[C@@H](F)[C@@H]1O has an IC50 (5'-nucleotidase [1]) of 2.4 nM.
With C[C@@H](Nc1nc(Cl)nc2c1ncn2[C@@H]1O[C@H](COP(=O)(O)CP(=O)(O)O)[C@@H](O)[C@@H]1F)c1ccccc1 the IC50 (5'-nucleotidase [1]) was 1.6 nM and the clearance [2] was 4.67 mL/min/kg.
In the case of CC(C)Nc1nc(Cl)nc2c1ncn2[C@@H]1O[C@H](COP(=O)(O)CP(=O)(O)O)[C@@H](O)[C@H]1O, the IC50 (5'-nucleotidase [1]) is reported as 0.7 nM.
Compound O=P(O)(O)CP(=O)(O)OC[C@H]1O[C@@H](n2ncc3c(NC4CCCC4)nc(Cl)nc32)[C@@H](F)[C@@H]1O has an IC50 (5'-nucleotidase [1]) of 0.15 nM and a clearance [2] of 4.5 mL/min/kg.
For C[C@@H](Nc1nc(Cl)nc2c1ncn2[C@@H]1O[C@H](COP(=O)(O)CP(=O)(O)O)[C@@H](O)[C@H]1O)c1ccccc1, the IC50 (5'-nucleotidase [1]) was 0.7 nM.
In the case of COCc1nc(NC2CCCC2)c2ncn([C@@H]3O[C@H](COP(=O)(O)CP(=O)(O)O)[C@@H](O)[C@@H]3F)c2n1, the IC50 (5'-nucleotidase [1]) is reported as 0.6 nM.
O=P(O)(O)CP(=O)(O)OC[C@H]1O[C@@H](n2cnc3c(NCc4ccccc4)nc(CCc4ccccc4)nc32)[C@@H](F)[C@@H]1O showed an IC50 (5'-nucleotidase [1]) of 18 nM.
With O=P(O)(O)CP(=O)(O)OC[C@H]1O[C@@H](n2cnc3c(NC4CCCC4)nc(C(O)C4CCOCC4)nc32)[C@@H](F)[C@@H]1O (stereo partly specified) the IC50 (5'-nucleotidase [1]) was 202 nM.
In the case of O=P(O)(O)CP(=O)(O)OC[C@H]1O[C@@H](n2ncc3c(NCc4ccccc4)nc(Cl)nc32)[C@@H](F)[C@@H]1O, the IC50 (5'-nucleotidase [1]) is reported as 5.9 nM.
In the case of Nc1ncnc2c1ncn2[C@@H]1O[C@H](COP(=O)(O)CP(=O)(O)O)[C@@H](O)[C@H]1O [PHOSPHOMETHYLPHOSPHONIC ACID ADENOSYL ESTER], the IC50 (5'-nucleotidase [3]) is reported as 187 nM.
Compound C[C@H](Nc1nc(Cl)nc2c1ncn2[C@@H]1O[C@H](COP(=O)(O)CP(=O)(O)O)[C@@H](O)[C@@H]1F)c1ccccc1 has an IC50 (5'-nucleotidase [1]) of 4.1 nM and a clearance [2] of 0.35 mL/min/kg.
For O=P(O)(O)CP(=O)(O)OC[C@H]1O[C@@H](n2cnc3c(NCc4ccccc4)nc(C(F)(F)F)nc32)[C@@H](F)[C@@H]1O, the IC50 (5'-nucleotidase [1]) was 18 nM.
Work on O=P(O)(O)CP(=O)(O)OC[C@H]1O[C@@H](n2cnc3c(NC4CCCC4)nc(Cl)nc32)[C@H](O)[C@@H]1O yielded an IC50 (5'-nucleotidase [1]) of 0.2 nM.
For O=P(O)(O)CP(=O)(O)OC[C@H]1O[C@@H](n2ncc3c(NCc4ccccc4)nc(Cl)nc32)[C@H](O)[C@@H]1O, the IC50 (5'-nucleotidase [1]) was 0.052 nM and the clearance [2] was 3.33 mL/min/kg.
Compound O=P(O)(O)CP(=O)(O)OC[C@H]1O[C@@H](n2cnc3c(NC4CC4)nc(Cl)nc32)[C@H](O)[C@@H]1O has an IC50 (5'-nucleotidase [1]) of 1.7 nM.
With Nc1ncnc2c1ncn2[C@@H]1O[C@H](COP(=O)(O)CP(=O)(O)O)[C@@H](O)[C@H]1F the IC50 (5'-nucleotidase [1]) was 18 nM.
Work on C[C@H](Nc1nc(Cl)nc2c1ccn2[C@@H]1O[C@H](COP(=O)(O)CP(=O)(O)O)[C@@H](O)[C@H]1O)c1ccc(F)cc1 yielded an IC50 (5'-nucleotidase [1]) of 0.031 nM and a clearance [2] of 0.5 mL/min/kg.
Work on Nc1nc(Cl)nc2c1ncn2[C@@H]1O[C@H](COP(=O)(O)CP(=O)(O)O)[C@@H](O)[C@@H]1F yielded an IC50 (5'-nucleotidase [1]) of 3.4 nM.
For CN(c1nc(Cl)nc2c1ncn2[C@@H]1O[C@H](COP(=O)(O)CP(=O)(O)O)[C@@H](O)[C@@H]1F)C1CCCC1, the IC50 (5'-nucleotidase [1]) was 0.15 nM.
Compound O=P(O)(O)CP(=O)(O)OC[C@H]1O[C@@H](n2cnc3c(NC4CCCC4)nc(C(O)c4ccccc4)nc32)[C@@H](F)[C@@H]1O (stereo partly specified) has an IC50 (5'-nucleotidase [1]) of 3.3 nM.
O=P(O)(O)CP(=O)(O)OC[C@H]1O[C@@H](n2cnc3c(NCc4ccccc4Cl)nc(Cl)nc32)[C@@H](F)[C@@H]1O showed an IC50 (5'-nucleotidase [1]) of 4.2 nM.
Compound COc1nc(NCc2ccccc2)c2ncn([C@@H]3O[C@H](COP(=O)(O)CP(=O)(O)O)[C@@H](O)[C@H]3O)c2n1 has an IC50 (5'-nucleotidase [1]) of 2.2 nM.
With O=P(O)(O)CP(=O)(O)OC[C@H]1O[C@@H](n2cnc3c(NCc4cccc(Cl)c4)nc(Cl)nc32)[C@@H](F)[C@@H]1O the IC50 (5'-nucleotidase [1]) was 1.3 nM.
Compound O=P(O)(O)CP(=O)(O)OC[C@H]1O[C@@H](n2cnc3c(NC4CCCC4)nc(C(O)C4CC4)nc32)[C@@H](F)[C@@H]1O (stereo partly specified) has an IC50 (5'-nucleotidase [1]) of 1.4 nM.
In the case of O=P(O)(O)CP(=O)(O)OC[C@H]1O[C@@H](n2cnc3c(NC4CC4)nc(Cl)nc32)[C@@H](F)[C@@H]1O, the IC50 (5'-nucleotidase [1]) is reported as 2.6 nM.
For O=P(O)(O)CP(=O)(O)OC[C@H]1O[C@@H](n2cnc3c(N4CCCC4)nc(Cl)nc32)[C@@H](F)[C@@H]1O, the IC50 (5'-nucleotidase [1]) was 0.9 nM.
Work on O=P(O)(O)CP(=O)(O)OC[C@H]1O[C@@H](n2ncc3c(NC4CCCC4)nc(Cl)nc32)[C@H](O)[C@@H]1O yielded an IC50 (5'-nucleotidase [1]) of 0.027 nM and a clearance [2] of 10.5 mL/min/kg.
In the case of CCc1nc(NCc2ccccc2)c2ncn([C@@H]3O[C@H](COP(=O)(O)CP(=O)(O)O)[C@@H](O)[C@H]3O)c2n1, the IC50 (5'-nucleotidase [1]) is reported as 12 nM.
Work on O=P(O)(O)CP(=O)(O)OC[C@H]1O[C@@H](n2cnc3c(NCc4ccccc4)nc(Cc4ccccc4)nc32)[C@@H](F)[C@@H]1O yielded an IC50 (5'-nucleotidase [1]) of 1.5 nM.
In the case of O=P(O)(O)CP(=O)(O)OC[C@H]1O[C@@H](n2cnc3c(N[C@H]4CCOC4)nc(Cl)nc32)[C@@H](F)[C@@H]1O, the IC50 (5'-nucleotidase [1]) is reported as 0.8 nM.
In the case of CN(c1nc(Cl)nc2c1ncn2[C@@H]1O[C@H](COP(=O)(O)CP(=O)(O)O)[C@@H](O)[C@H]1O)C1CCCC1, the IC50 (5'-nucleotidase [1]) is reported as 0.12 nM.
In the case of O=P(O)(O)CP(=O)(O)OC[C@H]1O[C@@H](n2cnc3c(NCc4ccccc4)nc(-c4ccccc4)nc32)[C@@H](F)[C@@H]1O, the IC50 (5'-nucleotidase [1]) is reported as 10 nM.
C[C@H](Nc1nc(Cl)nc2c1ccn2[C@@H]1O[C@H](COP(=O)(O)CP(=O)(O)O)[C@@H](O)[C@H]1O)c1ccccc1F showed an IC50 (5'-nucleotidase [1]) of 0.028 nM and a clearance [2] of 0.833 mL/min/kg.
With C[C@H](Nc1nc(Cl)nc2c1cnn2[C@@H]1O[C@H](COP(=O)(O)CP(=O)(O)O)[C@@H](O)[C@@H]1F)c1ccccc1 the IC50 (5'-nucleotidase [1]) was 5.4 nM and the clearance [2] was 0.483 mL/min/kg.
Compound O=P(O)(O)CP(=O)(O)OC[C@H]1O[C@@H](n2cnc3c(OCc4ccccc4)nc(Cl)nc32)[C@@H](F)[C@@H]1O has an IC50 (5'-nucleotidase [1]) of 1.3 nM.
C#Cc1nc(NCc2ccccc2)c2ncn([C@@H]3O[C@H](COP(=O)(O)CP(=O)(O)O)[C@@H](O)[C@@H]3F)c2n1 gave an IC50 (5'-nucleotidase [1]) of 2 nM.
For C[C@H](Nc1nc(Cl)nc2c1ncn2[C@@H]1O[C@H](COP(=O)(O)CP(=O)(O)O)[C@@H](O)[C@H]1O)c1ccccc1, the IC50 (5'-nucleotidase [1]) was 0.3 nM.
With C[C@H](Nc1nc(Cl)nc2c1cnn2[C@@H]1O[C@H](COP(=O)(O)CP(=O)(O)O)[C@@H](O)[C@H]1O)c1ccccc1F the IC50 (5'-nucleotidase [1]) was 0.07 nM and the clearance [2] was 0.667 mL/min/kg.
Compound Nc1nc(Cl)nc2c1ncn2[C@@H]1O[C@H](COP(=O)(O)CP(=O)(O)O)[C@@H](O)[C@H]1O has an IC50 (5'-nucleotidase [1]) of 5 nM.
For O=P(O)(O)CP(=O)(O)OC[C@H]1O[C@@H](n2cnc3c(NCc4ccccc4)nc(Cl)nc32)[C@H](O)[C@@H]1O, the IC50 (5'-nucleotidase [1]) was 0.3 nM.

From ChEMBL document CHEMBL4665688, “Discovery of AB680: A Potent and Selective Inhibitor of CD73” (J Med Chem, 2020)
